Laboratory results from patent US6806267B1, “Apoptosis-inducing compounds” (priority 1998, dated 2004).

Experiments:
K562 cells = test: Apoptosis in K562 cells, cytospin and staining; type: cell-based, human; details: K562, 200 μM 1 hour, then PBOX-6 10 μM 16 hours
Jurkat cells [1] = type: cell-based, human; details: 200 μM
JNK1 and JNK2 = type: cell-based, human; details: K562
Jurkat cells [2] = type: cell-based, human; details: 200 μM; remark: listed apart in the source
Protocol: This assay was set up as described by Kohn et al., 1976 with the following modifications.
Cells were seeded at 0.4×10^6 cells/ml and were in the logarithmic phase of growth. […] Cells harvested for the experiments were at a density of 2×10^6 cells/ml.
Cells (1×10^6) were labelled with [^3H] thymidine (sp. act. 2 Ci/mmol) (0.2 μCi/ml) and 1 μM unlabelled thymidine, and incubated for 20 hr. Cells were harvested by centrifugation at 500×g for 5 mins following by two washes in PBS and the pellet was resuspended in 3 ml of PBS. Cells were aliquoted into 1 ml amounts in a 24 well plate and allowed to recover for 1 hr at 37° C. before treating with indicated compounds. Following treatment, cells were washed once in PBS and resuspended in 250 μl of PBS. An aliquot of cells (200 μl) was loaded directly onto a 25 mm diameter glass fiber filter, pore size of 0.2 μM. The cells were lysed on the filter by the addition of 5 ml lysis buffer (2% (w/v) SDS, 10 mM disodium EDTA (pH 10) supplemented with 0.5 mg/ml proteinase K. The lysis buffer was allowed to flow slowly through the filter without suction. Filters were washed using 3 ml wash solution (0.02M Na3EDTA pH 10) allowing it to flow without suction. Filters were eluted in the dark with an alkaline solution (0.04M EDTA plus tetrapropylammonium hydroxide (10% in H2O ) added in the amount required to give pH 12.1). The elution apparatus consisted of a filter funnel with output tubing passing through a peristaltic pump to a collector. Elution took place overnight at a flow rate of 0.05 ml/min. Following elution, filters were treated with 0.4 ml HCl (1N) for 1 hr at 70° C. followed by 2.5 ml NaOH (0.4N) for 30 min at room temp. Scintillation fluid (10 ml) was added and radioactivity remaining on the filters was determined by scintillation counting.

[3] = target: T1, peripheral-type benzodiazepine receptor (PBR) (Homo sapiens, UniProt P30536); test: Radioligand binding assay, inhibition of [^3H]PK 11195 binding to HL-60 homogenates
T1 construct: Cell homogenates (50 μg protein) were incubated with 0.5-50 nM [^3H]; PK 11195; endogenous in cells; host or cells: HL-60 cell homogenate
T1 sequence (P30536 whole entry): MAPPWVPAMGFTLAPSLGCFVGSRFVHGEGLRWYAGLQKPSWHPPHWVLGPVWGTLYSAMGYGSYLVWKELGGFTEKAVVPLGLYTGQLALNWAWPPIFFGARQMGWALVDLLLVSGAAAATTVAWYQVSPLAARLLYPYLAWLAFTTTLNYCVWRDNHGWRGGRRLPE
Protocol: HL-60 cells were harvested by centrifugation at 600 g for 5 min and washing in phosphate-buffered saline. The resulting cell pellet was homogenised in 50 mM Tris/HCl buffer, pH 7.4 (2 ml), using an Ultraturrax homogeniser (10 sec) and then passed 5 times through a 21 gauge needle. Cell homogenates (50 μg protein) were incubated with 0.5-50 nM [^3H] PK 11195 in 50 mM Tris/HCl buffer, pH 7.4 (incubation buffer), in a total volume of 0.5 ml on ice. Total and non-specific/non-saturable binding in each case was determined in the absence and presence of 10 μM unlabelled PK 11195 respectively. All samples were incubated in triplicate for 60 min. The incubation mixtures were then filtered and counted as previously described (O'Beirne, et al., 1988). When testing the potency of a compound to inhibit [^3H] PK 11195 binding, samples were incubated with 2 nM [3H] PK 11195 and various concentrations (0.1 nM to 1 μM) of compound and subsequently treated exactly as above. The resulting Ki values were then generated by the use of the computer programs EBDA and LIGAND.
The amount of radioactivity bound in the presence of the displacer was expressed as a percentage of control bonding and the values represent the mean±SEM of triplicate determinations from one representative experiment performed at least twice. The Ki values were obtained as described in Methods section.

[4] = tested on: PARP (poly ADP-ribose polymerase); test: Western blot of PARP cleavage in Hela cells; type: cell-based, human
Protocol: CML cells were seeded at 2×10^6 cells in 5 mls of growth medium, and treated with 10 μM PBOX-6 for 16 and 24 hr. Hela cells were seeded at 1×10^6 cells per 25 cm^2 flask. Following a 24 hour incubation, the cells were treated with PBOX-3 for a further 48 hours and the cells were scraped up. Cells were then centrifuged at 500 g for 5 min, the supernatant was removed and the pellet was resuspended in 200 μl of PARP sample buffer (62.5 mM Tris/HCl pH 6.8, 6 M urea, 10% (w/v) glycerol, 2% (w/v) SDS, 0.00125% bromophenol blue, and 5% (v/v) β-mercaptoethanol was added immediately before use). Samples were sonicated for 15 sec before aliquoting into 15 μl volumes. Samples were stored at −20° C. until use. 10-15 μl of thawed samples were resolved directly on a 10% polyacrylamide gel and transferred onto PVDF membrane at room temperature using wet transfer apparatus. After transfer, the membrane was blocked overnight in PBS containing 5% dry milk (Marvel). After blocking, the membrane was washed in PBST for 2×2 minutes before incubating for 1 hr with anti-PARP antibody (2 μg/ml in PBST containing 1% dry milk). Following incubation the membrane was washed for 20 minutes in PBST and incubated with goat anti mouse HRP conjugated secondary antibody (1:1000 dilution in PBST containing 1% dry milk). After washing in PBST for 30 minutes, ECL was used to visualise the proteins. […]

HL-60 cells = test: Apoptosis in HL-60 cells, cytospin and Rapi-Diff staining

Row | Compound | effect of pretreatment on PBOX-6 induced apoptosis (K562 cells) | effect of pretreatment on etoposide induced apoptosis (Jurkat cells [1]) | effect of Topo II inhibitor pretreatment on PBOX-6 induced JNK activation (JNK1 and JNK2) | effect of pretreatment on etoposide induced DNA strand breaks (Jurkat cells [2]) | Ki [3] | PARP cleavage [4] | degree of necrosis (HL-60 cells; HL-60 cells, 10 μM, 16 hours) | cytotoxicity at 10 µM (HL-60 cells; Homo sapiens, HL-60, 16 h, read-out: % Apoptosis)
1 | C[C@@H](CN1CC(=O)NC(=O)C1)N1CC(=O)NC(=O)C1 [ICRF 187, reference compound] | reduced but did not completely inhibit | inhibited apoptosis induced by etoposide | failed to prevent against PBOX-6 induced activation of JNK | prevented etoposide induced DNA strand breaks |  |  |  | 
2 | CC(=O)OC1=C(c2ccccc2)Oc2cc3ccccc3cc2-n2cccc21 [PBOX-3, 4-Acetoxy-5-phenylnaphto[2,3-b]pyrrolo[1,2-d][1,4]oxazepine] |  |  |  |  | 6 ± 1.9 nM | induced PARP cleavage | negligible | 23.5 ± 2.1%
